Results published in patent US20260217708A1, “FUSED BENZAZEPINE DERIVATIVES FOR USE IN THE TREATMENT OF CANCER AND EPILEPSY” (UCB BIOPHARMA SRL, priority 2023, published 2026).

How the values were obtained:
system Xc^− [1] = target: T1, system Xc^− (Homo sapiens, UniProt Q9UPY5); experiment: [^14C]L-Cystine uptake assay; assay type: cell-based; set-up: endogenous in cells; host or cells: H4 cells; conditions: H4 cells, sodium-free HEPES buffer, 0.5 μM L-[14C]Cystine and 4.5 μM L-Cystine, 1 hour at 37° C.; read-out: pIC50 [^14C] L-Cystine uptake assay (converted)
T1 sequence (Q9UPY5 1-501): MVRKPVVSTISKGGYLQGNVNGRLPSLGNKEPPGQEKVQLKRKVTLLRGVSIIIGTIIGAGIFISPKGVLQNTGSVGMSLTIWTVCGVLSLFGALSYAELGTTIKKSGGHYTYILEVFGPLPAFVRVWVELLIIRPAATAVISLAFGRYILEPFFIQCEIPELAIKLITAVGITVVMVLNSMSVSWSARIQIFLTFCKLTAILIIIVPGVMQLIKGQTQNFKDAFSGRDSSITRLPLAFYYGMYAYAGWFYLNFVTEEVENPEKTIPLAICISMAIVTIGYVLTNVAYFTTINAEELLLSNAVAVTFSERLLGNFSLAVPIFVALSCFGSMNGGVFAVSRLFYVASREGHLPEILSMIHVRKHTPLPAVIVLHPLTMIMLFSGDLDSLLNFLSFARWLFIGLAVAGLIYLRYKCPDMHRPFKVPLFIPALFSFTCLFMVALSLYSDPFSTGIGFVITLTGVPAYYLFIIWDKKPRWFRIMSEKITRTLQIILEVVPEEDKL
T1 sequence (P08195 1-529 partner): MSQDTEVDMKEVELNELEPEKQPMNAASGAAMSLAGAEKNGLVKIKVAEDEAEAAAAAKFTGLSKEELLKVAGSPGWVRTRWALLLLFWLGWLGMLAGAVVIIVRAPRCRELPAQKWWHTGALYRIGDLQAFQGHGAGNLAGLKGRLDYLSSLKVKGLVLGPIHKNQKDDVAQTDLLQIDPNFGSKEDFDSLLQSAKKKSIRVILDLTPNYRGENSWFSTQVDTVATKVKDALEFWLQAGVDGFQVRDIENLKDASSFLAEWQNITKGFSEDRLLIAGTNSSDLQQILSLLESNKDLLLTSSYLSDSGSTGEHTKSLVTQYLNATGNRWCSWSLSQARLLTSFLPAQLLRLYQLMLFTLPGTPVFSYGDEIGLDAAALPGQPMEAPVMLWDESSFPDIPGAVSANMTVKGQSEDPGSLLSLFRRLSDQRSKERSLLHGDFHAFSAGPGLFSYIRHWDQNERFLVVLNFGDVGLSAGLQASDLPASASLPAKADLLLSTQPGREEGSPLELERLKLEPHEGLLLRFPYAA
In short: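 H4 cells at 5×10^4 cells/well in sodium-free HEPES buffer were preincubated 15 min with compounds (1% DMSO). Uptake of 0.5 μM [14C]L-cystine plus 4.5 μM unlabelled L-cystine ran 1 hour at 37° C on scintillating plates. IC50 was set between 1% DMSO and 50 μM Erastin controls and expressed as pIC50.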

system Xc^− [2] = target: T1, system Xc^−; experiment: Cystine-induced glutamate release assay; assay type: cell-based; set-up: endogenous in cells; host or cells: H4 cells; conditions: H4 cells, sodium-free HEPES buffer, 50 μM L-Cystine, 2 hours, Amplex Red glutamate readout; read-out: pIC50 Cystine-induced glutamate release assay (converted)
In short: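 H4 cells in sodium-free HEPES buffer (pH 7.4), 2 days after plating; glutamate release induced with 50 μM L-cystine plus compound (1% DMSO), 2 h at 37 °C. Supernatant glutamate measured by Amplex Red fluorescence; IC50/pIC50 derived between 1% DMSO and 50 μM erastin controls.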

With `Cc1cc2c(c(C)n1)-c1cccnc1CC(=O)N2CC(=O)Nc1ccc(C2CC2)cc1` [#58, N-(4-cyclopropylphenyl)-2-(3,5-dimethyl-9-oxo-4,8,12-triazatricyclo[9.4.0.0^2,7]pentadeca-1(11),2(7),3,5,12,14-hexaen-8-yl)acetamide] the IC50 (system Xc^− [1]) was 100 to 501 nM and the IC50 (system Xc^− [2]) was 39.8 to 100 nM.

Compound `CC1C(=O)N(CC(=O)Nc2ccc(Cl)c(F)c2)c2cc(CN3CC(C)(O)C3)ccc2-c2cccnc21` (stereo not drawn) [#343, N-(4-chloro-3-fluoro-phenyl)-2-[9-[(3-hydroxy-3-methyl-azetidin-1-yl)methyl]-5-methyl-6-oxo-5H-pyrido[2,3d][1]benzazepin-7-yl]acetamide] has an IC50 (system Xc^− [1]) of 100 to 501 nM and an IC50 (system Xc^− [2]) of 39.8 to 100 nM.

For `Cc1cc2c(c(C(F)F)n1)-c1cccnc1C(C)C(=O)N2CC(=O)Nc1ccc(C(F)F)cc1` (single isomer, unassigned) [#301, 2-[3-(difluoromethyl)-5,10-dimethyl-9-oxo-4,8,12-triazatricyclo[9.4.0.0^2,7]pentadeca-1(11),2(7),3,5,12,14-hexaen-8-yl]-N-[4-(difluoromethyl)phenyl]acetamide], the IC50 (system Xc^− [1]) was 39.8 to 100 nM and the IC50 (system Xc^− [2]) was 39.8 to 100 nM.

`CC1C(=O)N(CC(=O)Nc2ccc(C(F)F)cc2)c2cc(Cl)nc(Cl)c2-c2cccnc21` (stereo not drawn) [#395, 2-(3,5-dichloro-10-methyl-9-oxo-4,8,12-triazatricyclo[9.4.0.0^2,7]pentadeca-1(11),2(7),3,5,12,14-hexaen-8-yl)-N-[4-(difluoromethyl)phenyl]acetamide] gave an IC50 (system Xc^− [1]) of 39.8 to 100 nM and an IC50 (system Xc^− [2]) of 15.8 to 39.8 nM.

`Cc1cc2c(cc1C)N(CC(=O)Nc1ccc(Cl)c(F)c1)C(=O)Cc1ncccc1-2` [#3, N-(4-chloro-3-fluoro-phenyl)-2-(9,10-dimethyl-6-oxo-5-H-pyrido[2,3-d][1]benzazepin-7-yl)acetamide] was tested, and the IC50 (system Xc^− [1]) was 39.8 to 100 nM and the IC50 (system Xc^− [2]) was 100 to 501 nM.

For `Cc1cc2c(c(F)n1)-c1cccnc1[C@@H](F)C(=O)N2CC(=O)Nc1ccc(C(F)(F)F)cc1` (single isomer, unassigned) [#195, Enantiomer (10R) or (10S) of 2-(3,10-difluoro-5-methyl-9-oxo-4,8,12-triazatricyclo[9.4.0.0^2,7]pentadeca-1(11),2(7),3,5,12,14-hexaen-8-yl)-N-[4-(trifluoromethyl)phenyl]acetamide], the IC50 (system Xc^− [1]) was less than 15.8 nM and the IC50 (system Xc^− [2]) was less than 15.8 nM.

With `CC1C(=O)N(CC(=O)Nc2ccc(Cl)c(F)c2)c2cccc(F)c2-c2cccnc21` (single isomer, unassigned) [#409, N-(4-chloro-3-fluoro-phenyl)-2-[11-fluoro-5-methyl-6-oxo-5H-pyrido[2,3-d][1]benzazepin-7-yl]acetamide] the IC50 (system Xc^− [1]) was 15.8 to 39.8 nM and the IC50 (system Xc^− [2]) was 15.8 to 39.8 nM.

With `Cc1cc2c(cc1C#N)-c1cc(F)cnc1C(C)C(=O)N2CC(=O)Nc1ccc(C(F)F)cc1` (single isomer, unassigned) [#420, 2-[10-cyano-2-fluoro-5,9-dimethyl-6-oxo-5H-pyrido[2,3-d][1]benzazepin-7-yl]-N-[4-(difluoromethyl)phenyl]acetamide] the IC50 (system Xc^− [1]) was less than 15.8 nM and the IC50 (system Xc^− [2]) was less than 15.8 nM.

`Cc1cc2c(c(N)n1)-c1cccnc1CC(=O)N2CC(=O)Nc1ccc(C(F)(F)F)cc1` [#103, 2-(3-amino-5-methyl-9-oxo-4,8,12-triazatricyclo[9.4.0.0^2,7]pentadeca-1(11),2(7),3,5,12,14-hexaen-8-yl)-N-[4-(trifluoromethyl)phenyl]acetamide] gave an IC50 (system Xc^− [1]) of 100 to 501 nM and an IC50 (system Xc^− [2]) of 100 to 501 nM.

`Cc1cc2c(c(Cl)n1)-c1cc(F)nn1C(C)C(=O)N2CC(=O)Nc1ccc(C(F)F)cc1` (single isomer, unassigned) [#389, 2-[14-chloro-4-fluoro-7,12-dimethyl-8-oxo-5,6,9,13-tetrazatricyclo[8.4.0.0^2,6]tetradeca-1(14),2,4,10,12-pentaen-9-yl]-N-[4-(difluoromethyl)phenyl]acetamide] was tested, and the IC50 (system Xc^− [1]) was less than 15.8 nM and the IC50 (system Xc^− [2]) was less than 15.8 nM.

Work on `Cc1cc2c(c(C3CC3)n1)-c1ccccc1CC(=O)N2CC(=O)Nc1ccc(C(F)(F)F)cc1` [#73, 2-(1-cyclopropyl-3-methyl-6-oxo-7H-pyrido[4,3-d][3]benzazepin-5-yl)-N-[4-(trifluoromethyl)phenyl]acetamide] yielded an IC50 (system Xc^− [1]) of 100 to 501 nM and an IC50 (system Xc^− [2]) of 100 to 501 nM.

`Cc1cc2c(cn1)-c1ccc(F)cc1C(C)C(=O)N2CC(=O)Nc1ccc(Cl)c(F)c1` (single isomer, unassigned) [#324, N-(4-chloro-3-fluoro-phenyl)-2-[9-fluoro-3,7-dimethyl-6-oxo-7H-pyrido[3,4-a][3]benzazepin-5-yl]acetamide] was tested, and the IC50 (system Xc^− [1]) was less than 15.8 nM and the IC50 (system Xc^− [2]) was less than 15.8 nM.

`Cc1cc2c(c(Cl)n1)-c1cccnc1CC(=O)N2CC(=O)Nc1ccc(C(F)(F)F)cc1` [#97, 2-(3-chloro-5-methyl-9-oxo-4,8,12-triazatricyclo[9.4.0.0^2,7]pentadeca-1(11),2(7),3,5,12,14-hexaen-8-yl)-N-[4-(trifluoromethyl)phenyl]acetamide] gave an IC50 (system Xc^− [1]) of less than 15.8 nM and an IC50 (system Xc^− [2]) of 39.8 to 100 nM.

In the case of `Cc1cc2c(cn1)-c1cc(C)c(C)cc1N(CC(=O)Nc1ccc(C(F)(F)F)cc1)C(=O)C2` [#21, N-[4-(trifluoromethyl)phenyl]-2-(3,9,10-trimethyl-6-oxo-5H-pyrido[4,3-d][1]benzazepin-7-yl)acetamide], the IC50 (system Xc^− [1]) is reported as 39.8 to 100 nM and the IC50 (system Xc^− [2]) is reported as 100 to 501 nM.

`Cc1cc2c(c(F)n1)-c1cccnc1[C@@H](C)C(=O)N2CC(=O)Nc1ccc(C(F)F)cc1` [#151] was tested, and the IC50 (system Xc^− [1]) was less than 15.8 nM and the IC50 (system Xc^− [2]) was less than 15.8 nM.

`Cc1cc2c(c(F)n1)-c1cccnc1C(O)C(=O)N2CC(=O)Nc1ccc(Br)c(Cl)c1` (single isomer, unassigned) [#213, Enantiomer (10S) or (10R) of N-(4-bromo-3-chloro-phenyl)-2-[(10S)-3-fluoro-10-hydroxy-5-methyl-9-oxo-4,8,12-triazatricyclo[9.4.0.0^2,7]pentadeca-1(11),2(7),3,5,12,14-hexaen-8-yl]acetamide] gave an IC50 (system Xc^− [1]) of 15.8 to 39.8 nM and an IC50 (system Xc^− [2]) of 15.8 to 39.8 nM.

`COc1cc(F)c2c(c1)N(CC(=O)Nc1ccc(Cl)c(F)c1)C(=O)C(C)c1ncncc1-2` (single isomer, unassigned) [#371, N-(4-chloro-3-fluoro-phenyl)-2-[11-fluoro-9-methoxy-5-methyl-6-oxo-5H-pyrimido[4,5-d][1]benzazepin-7-yl]acetamide] showed an IC50 (system Xc^− [1]) of less than 15.8 nM and an IC50 (system Xc^− [2]) of less than 15.8 nM.

`CC1C(=O)N(CC(=O)Nc2ccc(Cl)c(F)c2)c2cc(F)cc(F)c2-c2cccnc21` (single isomer, unassigned) [#406, N-(4-chloro-3-fluoro-phenyl)-2-[9,11-difluoro-5-methyl-6-oxo-5H-pyrido[2,3-d][1]benzazepin-7-yl]acetamide] gave an IC50 (system Xc^− [1]) of 15.8 to 39.8 nM and an IC50 (system Xc^− [2]) of 15.8 to 39.8 nM.

Work on `CC1C(=O)N(CC(=O)Nc2ccc(C(F)F)cc2)c2cc(N3CC4(C3)CC4(F)F)nc(F)c2-c2cccnc21` (single isomer, unassigned) [#286, 2-[5-(2,2-difluoro-5-azaspiro[2.3]hexan-5-yl)-3-fluoro-10-methyl-9-oxo-4,8,12-triazatricyclo[9.4.0.0^2,7]pentadeca-1(15),2,4,6,11,13-hexaen-8-yl]-N-[4-(difluoromethyl)phenyl]acetamide] yielded an IC50 (system Xc^− [1]) of less than 15.8 nM and an IC50 (system Xc^− [2]) of less than 15.8 nM.

With `COc1ccc2c(c1)-c1c(cc(C)nc1Cl)N(CC(=O)Nc1ccc(C(F)(F)F)cc1)C(=O)C2C` (stereo not drawn) [#164, 2-(1-chloro-10-methoxy-3,7-dimethyl-6-oxo-7H-pyrido[4,3-d][3]benzazepin-5-yl)-N-[4-(trifluoromethyl)phenyl]acetamide] the IC50 (system Xc^− [1]) was 39.8 to 100 nM and the IC50 (system Xc^− [2]) was 100 to 501 nM.

`Cc1cc2c(c(F)n1)-c1cccnc1[C@@H](C)C(=O)N2CC(=O)Nc1ccc(C(F)(F)F)c(F)c1` [#143, 2-[(10R)-3-fluoro-5,10-dimethyl-9-oxo-4,8,12-triazatricyclo[9.4.0.0^2,7]pentadeca-1(11),2(7),3,5,12,14-hexaen-8-yl]-N-[3-fluoro-4-(trifluoromethyl)phenyl]acetamide] was tested, and the IC50 (system Xc^− [1]) was less than 15.8 nM and the IC50 (system Xc^− [2]) was 15.8 to 39.8 nM.
